Results as given in US8871756B2 (Hoffmann-La Roche Inc., priority 2011, dated 2014).
Counter-ions that a name gives are not always drawn.

Test system: RSV Long strain
Experiment: Viral cytopathic effect (CPE) assay, anti-RSV activity
Type: cell-based, Respiratory Syncytial Virus
Conditions: human respiratory syncytial virus, 144 h, RSV Long strain (ATCC); cell viability after 6 days, Cell Counting kit-8
How it was run: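 EC50 was derived from CCK-8 viability at 450/630 nm measured 6 days post-infection. Infection used enough RSV Long strain for approximately 80–90% cytopathic effect, in the presence of half-log serially diluted compound. Cells were plated the day before at 6×10^3 per well in DMEM/10% FBS.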

Row | Structure (SMILES) | EC50 [µM]
1 | NCCCNc1cc(N2CCS(=O)(=O)c3ccccc3C2)nc2c(Cl)cccc12 [Example 9-12, N-[8-Chloro-2-(1,1-dioxido-2,3-dihydro-1,4-benzothiazepin-4(5H)-yl)quinolin-4-yl]propane-1,3-diamine] | 2.66
2 | NCCCc1cc(N2CCCc3ccccc3C2)nc2ccccc12 [Example 128, 3-[2-(1,3,4,5-Tetrahydro-2H-2-benzazepin-2-yl)quinolin-4-yl]propan-1-amine] | 7.17
3 | Cc1ccc2nc(N3CCS(=O)(=O)c4ccccc4C3)cc(NCC3(CN)CC(F)(F)C3)c2c1 [Example 3-12, N-{[1-(Aminomethyl)-3,3-difluorocyclobutyl]methyl}-2-(1,1-dioxido-2,3-dihydro-1,4-benzothiazepin-4(5H)-yl)-6-methylquinolin-4-amine] | 1.65
4 | Cc1ccc2nc(N3CCC(F)(F)c4ccccc4C3)cc(N3CCC(N)C3)c2c1 (centres unmarked) [Example 111-4, 1-[2-(5,5-Difluoro-1,3,4,5-tetrahydro-2H-2-benzazepin-2-yl)-6-methylquinolin-4-yl]pyrrolidin-3-amine] | 0.066
5 | Cc1ccc2nc(N3CCS(=O)(=O)c4ccccc4C3)cc(NC(=O)C3CCCNC3)c2c1 (centres unmarked) [Example 3-61, N-[2-(1,1-Dioxido-2,3-dihydro-1,4-benzothiazepin-4(5H)-yl)-6-methylquinolin-4-yl]piperidine-3-carboxamide] | 0.118
6 | Cc1ccc2nc(N3CCS(=O)(=O)c4ccccc4C3)nc(NCCN)c2c1 [Example 90, N-[2-(1,1-Dioxido-2,3-dihydro-1,4-benzothiazepin-4(5H)-yl)-6-methylquinazolin-4-yl]ethane-1,2-diamine] | 0.005
7 | COc1ccc2c(c1)CN(c1cc(NCCN)c3ccccc3n1)CCC2 [Example 118-17, N-[2-(8-Methoxy-1,3,4,5-tetrahydro-2H-2-benzazepin-2-yl)quinolin-4-yl]ethane-1,2-diamine] | 0.806
8 | NCCCNc1cc(N2CCS(=O)(=O)c3ccccc3C2)nc2ccc(OC(F)(F)F)cc12 [Example 17-1, N-[2-(1,1-Dioxido-2,3-dihydro-1,4-benzothiazepin-4(5H)-yl)-6-(trifluoromethoxy)quinolin-4-yl]propane-1,3-diamine] | 5.54
9 | NCCNc1cc(N2CCCc3ccccc3C2)nc2ccc(F)cc12 [Example 118-21, N-[6-Fluoro-2-(1,3,4,5-tetrahydro-2H-2-benzazepin-2-yl)quinolin-4-yl]ethane-1,2-diamine] | 1.38
10 | Cc1ccc2nc(N3CCS(=O)(=O)c4ccccc4C3)cc(OC3CCNC3)c2c1 (centres unmarked) [Example 98-1, 4-[6-Methyl-4-(pyrrolidin-3-yloxy)quinolin-2-yl]-2,3,4,5-tetrahydro-1,4-benzothiazepine 1,1-dioxide] | 0.778
11 | Cc1ccc2nc(N3CCS(=O)(=O)c4ccccc4C3)nc(NC3CCNC3)c2c1 (centres unmarked) [Example 135-2, 2-(1,1-Dioxido-2,3-dihydro-1,4-benzothiazepin-4(5H)-yl)-6-methyl-N-(pyrrolidin-3-yl)quinazolin-4-amine] | 0.018
12 | Cc1ccc2nc(N3CC[S+]([O-])c4ccccc4C3)cc(N3C[C@@H](N)[C@H](O)C3)c2c1 (relative stereo) [Example 19-1, trans-4-Amino-1-[6-methyl-2-(1-oxido-2,3-dihydro-1,4-benzothiazepin-4(5H)-yl)quinolin-4-yl]pyrrolidin-3-ol] | 0.043
13 | Cc1ccc2nc(N3CCS(=O)(=O)c4ccccc4C3)cc(NCCNCCO)c2c1 [Example 3-42, 2-[(2-{[2-(1,1-Dioxido-2,3-dihydro-1,4-benzothiazepin-4(5H)-yl)-6-methylquinolin-4-yl]amino}ethyl)amino]ethanol] | 0.007
14 | Cc1ccc2nc(N3CCC(F)(F)c4ccccc4C3)nc(NCC3(CN)CSC3)c2c1 [Example 114-2, N-{[3-(Aminomethyl)thietan-3-yl]methyl}-2-(5,5-difluoro-1,3,4,5-tetrahydro-2H-2-benzazepin-2-yl)-6-methylquinazolin-4-amine] | 0.975
15 | Cc1ccc2nc(N3CC[S+]([O-])c4ccccc4C3)cc(NCC3(CN)COC3)c2c1 (centres unmarked) [Example 18-8, N-{[3-(Aminomethyl)oxetan-3-yl]methyl}-6-methyl-2-(1-oxido-2,3-dihydro-1,4-benzothiazepin-4(5H)-yl)quinolin-4-amine] | 0.0007
16 | Cc1ccc2nc(N3CCC(F)(F)c4ccccc4C3)cc(NCCCN)c2c1 [Example 111-9, N-[2-(5,5-Difluoro-1,3,4,5-tetrahydro-2H-2-benzazepin-2-yl)-6-methylquinolin-4-yl]propane-1,3-diamine] | 0.047
17 | OCc1cc(N2CCCc3ccccc3C2)nc2ccccc12 [Example 129, [2-(1,3,4,5-Tetrahydro-2H-2-benzazepin-2-yl)quinolin-4-yl]methanol] | 7.88
18 | Cc1ccc2nc(N3CCS(=O)(=O)c4ccccc4C3)cc(NC(CO)CO)c2c1 [Example 11-1, 2-{[2-(1,1-Dioxido-2,3-dihydro-1,4-benzothiazepin-4(5H)-yl)-6-methylquinolin-4-yl]amino}propane-1,3-diol] | 0.069
19 | Cc1ccc2nc(N3CC[S+]([O-])c4ccccc4C3)nc(N3CCC(N)C3)c2c1 (centres unmarked) [Example 93-1, 1-[6-Methyl-2-(1-oxido-2,3-dihydro-1,4-benzothiazepin-4(5H)-yl)quinazolin-4-yl]pyrrolidin-3-amine] | 0.005
20 | Cc1ccc2nc(N3CCS(=O)(=O)c4ccccc4C3)cc(Nc3ccon3)c2c1 [Example 3-64, 2-(1,1-Dioxido-2,3-dihydro-1,4-benzothiazepin-4(5H)-yl)-6-methyl-N-(1,2-oxazol-3-yl)quinolin-4-amine] | 0.874
21 | Cc1ccc2nc(N3CC[S+]([O-])c4ccccc4C3)cc(NCCO)c2c1 (centres unmarked) [Example 18-11, 2-{[6-Methyl-2-(1-oxido-2,3-dihydro-1,4-benzothiazepin-4(5H)-yl)quinolin-4-yl]amino}ethanol] | 0.619
22 | Cc1ccc2nc(N3CCS(=O)(=O)c4ccccc4C3)cc(NCCOCCN)c2c1 [Example 5-2, N-[2-(2-Aminoethoxy)ethyl]-2-(1,1-dioxido-2,3-dihydro-1,4-benzothiazepin-4(5H)-yl)-6-methylquinolin-4-amine] | 0.211
23 | N=C(N)NCCNc1cc(N2CCCc3ccccc3C2)nc2ccccc12 [Example 125, 1-(2-{[2-(1,3,4,5-Tetrahydro-2H-2-benzazepin-2-yl)quinolin-4-yl]amino}ethyl)guanidine trifluoroacetate] | 2.52
24 | Cc1ccc2nc(N3CCS(=O)(=O)c4ccccc4C3)cc(N[C@@H]3CCC[C@H]3N)c2c1 (relative stereo) [Example 15-5, trans-N-[2-(1,1-Dioxido-2,3-dihydro-1,4-benzothiazepin-4(5H)-yl)-6-methylquinolin-4-yl]cyclopentane-1,2-diamine] | 0.74
25 | Cc1ccc2nc(N3CCS(=O)(=O)c4ccccc4C3)cc(NCCNC3COC3)c2c1 [Example 45-3, N-[2-(1,1-Dioxido-2,3-dihydro-1,4-benzothiazepin-4(5H)-yl)-6-methylquinolin-4-yl]-N′-(oxetan-3-yl)ethane-1,2-diamine] | 0.031
26 | CNCCNc1cc(N2CCS(=O)(=O)c3ccccc3C2)nc2ccc(C)cc12 [Example 3-31, N-[2-(1,1-Dioxido-2,3-dihydro-1,4-benzothiazepin-4(5H)-yl)-6-methylquinolin-4-yl]-N′-methylethane-1,2-diamine] | 0.014
